Test results from patent US20090054392A1, “NAPHTHYLPYRIMIDINE, NAPHTHYLPYRAZINE AND NAPHTHYLPYRIDAZINE ANALOGS AND THEIR USE AS AGONISTS OF THE WNT-BETA-CATENIN CELLULAR MESSAGING SYSTEM” (Wyeth, priority 2007, published 2009).

Key:
[1] = tested on: Dkk1-LRP5-TCF-Luciferase
[2] = tested on: Dkk1-LRP5-TCF-Luciferase; assay: Functional Dkk1-LRP5-TCF-Luciferase Assay in U2OS Cells; conditions: for fold induction at 2 µM / EC50 / fold induction at 20 µM: Homo sapiens, U2OS; for fold induction at 2 µM: read-out: B = TCF ACTIVITY/DMSO CONTROL Fold induction @ 2.0 uM, 2.0 uM compound; for fold induction at 20 µM: read-out: C = TCF ACTIVITY/DMSO CONTROL Fold induction @ 20.0 uM, 20.0 uM compound; for A = MAX FOLD Induction/DMSO CONTROL: maximum fold induction over DMSO control

B = TCF ACTIVITY/DMSO CONTROL Fold induction @ 2.0 uM ([1]; 2 µM) [fold]	C = TCF ACTIVITY/DMSO CONTROL Fold induction @ 20.0 uM ([1]; 20 µM) [fold]	EC50 [2] [nM]	A = MAX FOLD Induction/DMSO CONTROL [2] [fold]	Compound	fold induction at 2 µM [2]	fold induction at 20 µM [2]
1.435	1.995	–	–	6-{2-[4-(aminomethyl)piperidin-1-yl]pyrimidin-4-yl}-2-naphthyl acetate	–	–
–	–	3700	4.730	N[C@H]1CC[C@H](Nc2nccc(-c3ccc4ccccc4c3)n2)CC1 [trans-N-[4-(2-naphthyl)pyrimidin-2-yl]cyclohexane-1,4-diamine]	1.91	3.95
–	–	925	1.975	OCC1CCN(c2nccc(-c3ccc4ccccc4c3)n2)C1 (centres unmarked) [{1-[4-(2-naphthyl)pyrimidin-2-yl]pyrrolidin-3-yl}methanol]	2.13	1.42
–	–	–	1.800	OC[C@@H]1CCCN(c2nccc(-c3ccc4ccccc4c3)n2)C1 [{(3R)-1-[4-(2-naphthyl)pyrimidin-2-yl]piperidin-3-yl}methanol]	1.98	1.08
–	–	–	1.840	OC[C@H]1CCCN(c2nccc(-c3ccc4ccccc4c3)n2)C1 [{(3S)-1-[4-(2-naphthyl)pyrimidin-2-yl]piperidin-3-yl}methanol]	2.8	1.81

Second part, the compound before the results:

Compound	B = TCF ACTIVITY/DMSO CONTROL Fold induction @ 2.0 uM ([1]; 2 µM) [fold]	C = TCF ACTIVITY/DMSO CONTROL Fold induction @ 20.0 uM ([1]; 20 µM) [fold]	EC50 [2] [nM]	A = MAX FOLD Induction/DMSO CONTROL [2] [fold]	fold induction at 2 µM [2]	fold induction at 20 µM [2]
CC(C)(C)OC(=O)N[C@@H]1CCN(c2nccc(-c3ccc4ccccc4c3)n2)C1 [tert-butyl {(3R)-1-[4-(2-naphthyl)pyrimidin-2-yl]pyrrolidin-3-yl}carbamate]	–	–	–	–	1.95	–
CC(C)(C)OC(=O)N[C@H]1CCN(c2nccc(-c3ccc4ccccc4c3)n2)C1 [tert-butyl {(3S)-1-[4-(2-naphthyl)pyrimidin-2-yl]pyrrolidin-3-yl}carbamate]	–	–	–	–	1.51	–
O=CNC1CCCN(c2nccc(-c3ccc4ccccc4c3)n2)CC1 (centres unmarked) [{1-[4-(2-naphthyl)pyrimidin-2-yl]azepan-4-yl}formamide]	–	–	2250	1.800	1.5	2.05
OCC1CCN(c2nccc(-c3ccc4ccccc4c3)n2)CC1 [{1-[4-(2-naphthyl)pyrimidin-2-yl]piperidin-4-yl}methanol]	–	–	–	–	1.81	0.02
NCC1(CN)C[C@@H]2C[C@H]1CN2c1nccc(-c2ccc3ccccc3c2)n1 [{(1S,4R)-2-[4-(2-naphthyl)pyrimidin-2-yl]-2-azabicyclo[2.2.1]heptane-5,5-diyl}dimethanamine]	–	–	–	–	1.2	–
OC[C@H]1CCCN1c1nccc(-c2ccc3ccccc3c2)n1 [{(2R)-1-[4-(2-naphthyl)pyrimidin-2-yl]pyrrolidin-2-yl}methanol]	–	–	–	–	1.85	1.78
OC[C@@H]1CCCN1c1nccc(-c2ccc3ccccc3c2)n1 [{(2S)-1-[4-(2-naphthyl)pyrimidin-2-yl]pyrrolidin-2-yl}methanol]	–	–	–	–	2.05	2.02
